Laboratory results reported in patent US9751842B2, “Phthalazine derivatives” (Merck Patent GmbH, priority 2013, dated 2017).

Assays:
[1] = biological target: T1, GST-tagged Tankyrase-2 (873-1166 aa) (Homo sapiens, UniProt Q9H2K2); test: Tankyrase 2 autoparsylation HTRF enzyme assay; assay type: biochemical; settings: HTRF autoparsylation, 90 min at 30° C; read-out: IC50 TNKS2 enzyme assay
T1 construct: GST-tagged Tankyrase-2 (873-1166 aa)
Description: (§1) Biochemical Activity Testing of Tankyrase 1 and 2: Autoparsylation Assay
(§2) The autoparsylation assay is run in two steps: the enzymatic reaction in which GST-tagged Tankyrase-1, resp Tankyrase-2 transferred biotinylated ADP-ribose to itself from biotinylated NAD as co-substrate and the detection reaction where a time resolved FRET between cryptate labelled anti-GST bound to the GST tag of the enzyme and Xlent® labelled-streptavidin bound the biotin-parsylation residue is analysed. The autoparsylation activity was detectable directly via the increase in HTRF signal.
(§3) The autoparsylation assay is performed as 384-well HTRF® (Cisbio, Codolet, France) assay format in Greiner low volume nb 384-well microtiter plates and is used for high throughput screen. 250 nM GST-tagged Tankyrase-1 (1023-1327 aa), respectively about 250 nM GST-tagged Tankyrase-2 (873-1166 aa) and 5 μM bio-NAD (Biolog, Life science Inst., Bremen, Germany) as co-substrate are incubated in a total volume of 5 μl (50 mM HEPES, 4 mM Mg-chloride, 0.05% Pluronic F-68, 1.4 mM DTT, 0.5% DMSO, pH 7.7) in the absence or presence of the test compound (10 dilution concentrations) for 90 min at 30° C. The reaction is stopped by the addition of 1 μl 50 mM EDTA solution. 2 μl of the detection solution (1.6 μM SA-Xlent® (Cisbio, Codolet, France), 7.4 nM Anti-GST-K® (Eu-labelled anti-GST, Cisbio, Codolet, France) in 50 mM HEPES, 800 mM KF, 0.1° A. BSA, 20 mM EDTA, 0.1% CHAPS, pH 7.0) are added. After 1 h incubation at room temperature the HTRF is measured with an Envision multimode reader (Perkin Elmer LAS Germany GmbH) at excitation wavelength 340 nm (laser mode) and emission wavelengths 615 nm and 665 nm. The ratio of the emission signals is determined. The full value used is the inhibitor-free reaction. The pharmacological zero value used is XAV-939 (Tocris) in a final concentration of 5 μM. The inhibitory values (IC50) are determined using either the program Symyx Assay Explorer® or Condosseo® from GeneData.

[2] = test system: Tankyrase (Axin2 level in DLD1 cells); test: Cellular inhibition of Tankyrase, Axin2 Luminex assay in DLD1 cells; assay type: cell-based; settings: Homo sapiens, DLD-1, 24 hours, Axin2 level increase, read-out: IC50 Cell assay
Description: Measurement of Cellular Inhibition of Tankyrase
Since Tankyrases have been described to modulate cellular level of Axin2 (Huang et al., 2009; Nature) the increase of Axin2 level is used as read-out for determination of cellular inhibition of Tankyrases in a Luminex based assay.
Cells of the colon carcinoma cell line DLD1 are plated in 96 well plates with 1.5×10^4 cells per well. Next day, cells are treated with a serial dilution of test compound in seven steps as triplicates with a final DMSO concentration of 0.3%. After 24 hours, cells are lysed in lysis buffer (20 mM Tris/HCl pH 8.0, 150 mM NaCl, 1% NP40, 10% Glycerol) and lysates are cleared by centrifugation through a 96 well filter plate (0.65 μm). Axin2 protein is isolated from cell lysates by incubation with a monoclonal anti-Axin2 antibody (R&D Systems #MAB6078) that is bound to fluorescent carboxybeads. Then, bound Axin2 is specifically detected with a polyclonal anti-Axin2 antibody (Cell Signaling #2151) and an appropriate PE-fluorescent secondary antibody. The amount of isolated Axin2 protein is determined in a Luminex^200 machine (Luminex Corporation) according to the manufacturer's instruction by counting 100 events per well. Inhibition of Tankyrase by test compounds results in higher levels of Axin2 which directly correlates with an increase of detectable fluorescence. As controls cells are treated with solvent alone (neutral control) and with a Tankyrase reference inhibitor IWR-2 (3E-06 M) which refers as control for maximum increase of Axin2. For analysis, the obtained data are normalized against the untreated solvent control and fitted for determination of the EC50 values using the Assay Explorer software (Accelrys).

[3] = biological target: T2, GST-tagged Tnks-1 (1023-1327 aa) (Homo sapiens, UniProt O95271); test: TNKS1 activity ELISA (autoparsylation); assay type: biochemical; settings: activity ELISA, 1 hour at 30° C; read-out: IC50 TNKS1 ELISA
T2 construct: GST-tagged Tnks-1 (1023-1327 aa, prepared in-house); made in house
Description: (§4) Description of the TNKS1 and TNKS2 ELISA Assay
(§5) Biochemical Activity Testing of TNKS 1 and 2: Activity ELISA (Autoparsylation Assay)
(§6) For analysis of autoparsylation activity of TNKS 1 and 2 an activity ELISA is performed: In the first step GST tagged TNKS is captured on a Glutathione coated plate. Then the activity assay with biotinylated NAD is performed in the absence/presence of the compounds. During the enzymatic reaction GST tagged TNKS transfers biotinylated ADP-ribose to itself from biotinylated NAD as co-substrate. For the detection streptavidin-HRP conjugate is added that binds to the biotinylated TNKS and is thereby captured to the plates. The amount of biotinylated resp. autoparsylated TNKS is detected with a luminescence substrate for HRP. The level of the luminescence signal correlates directly with the amount of autoparsylated TNKS and therefore with activity of TNKS.
(§7) The activity ELISA is performed in 384 well Glutathione coated microtiter plates (Express capture Glutathione coated plate, Biocat, Heidelberg, Germany). The plates are pre-equilibrated with PBS. Then the plates are incubated with 50 μl 20 ng/well GST-tagged Tnks-1 (1023-1327 aa, prepared in-house), respectively GST-tagged Tnks-2 (873-1166 aa, prepared in-house) in assay buffer (50 mM HEPES, 4 mM Mg-chloride, 0.05% Pluronic F-68, 2 mM DTT, pH 7.7) overnight at 4° C. The plates are washed 3 times with PBS-Tween-20. The wells are blocked by incubation at room temperature for 20 minutes with 50 μl blocking buffer (PBS, 0.05% Tween-20, 0.5% BSA). Afterwards the plates are washed 3 times with PBS-Tween-20. The enzymatic reaction is performed in 50 μl reaction solution (50 mM HEPES, 4 mM Mg-chloride, 0.05% Pluronic F-68, 1.4 mM DTT, 0.5% DMSO, pH 7.7) with 10 μM bio-NAD (Biolog, Life science Inst., Bremen, Germany) as co-substrate in the absence or presence of the test compound (10 dilution concentrations) for 1 hour at 30° C. The reaction is stopped by 3 times washing with PBS-Tween-20. For the detection 50 μl of 20 ng/μl Streptavidin, HRP conjugate (MoBiTec, Göttingen, Germany) in PBS/0.05% Tween-20/0.01% BSA are added and the plates are incubated for 30 minutes at room temperature. After three times washing with PBS-Tween-20 50 μl of SuperSignal ELISA Femto Maximum sensitivity substrate solution (ThermoFisherScientific (Pierce), Bonn, Germany) are added. Following a 1 minute incubation at room temperature luminescence signals are measured with an Envision multimode reader (Perkin Elmer LAS Germany GmbH) at 700 nm. The full value used is the inhibitor-free reaction. The pharmacological zero value used is XAV-939 (Tocris) in a final concentration of 5 μM. The inhibitory values (IC50) are determined using either the program Symyx Assay Explorer® or Condosseo® from GeneData.

[4] = biological target: T3, GST-tagged Tankyrase-1 (1023-1327 aa) (Homo sapiens, UniProt O95271); test: Tankyrase 1 autoparsylation HTRF enzyme assay; assay type: biochemical; settings: HTRF autoparsylation, 90 min at 30° C; read-out: IC50 TNKS1 enzyme assay
T3 construct: GST-tagged Tankyrase-1 (1023-1327 aa)
Description: as §1, §2, §3

[5] = biological target: T4, GST-tagged Tnks-2 (873-1166 aa) (Homo sapiens, UniProt Q9H2K2); test: TNKS2 activity ELISA (autoparsylation); assay type: biochemical; settings: activity ELISA, 1 hour at 30° C; read-out: IC50 TNKS2 ELISA
T4 construct: GST-tagged Tnks-2 (873-1166 aa, prepared in-house); made in house
Description: as §4, §5, §6, §7

β-catenin = settings: Huang et al., 2009, Nature; by increasing AXIN1 and AXIN2 levels; cited from earlier work
DLD-1-cancer cells = settings: Huang et al., 2009, Nature; cited from earlier work

T1 sequence (Q9H2K2 873-1166): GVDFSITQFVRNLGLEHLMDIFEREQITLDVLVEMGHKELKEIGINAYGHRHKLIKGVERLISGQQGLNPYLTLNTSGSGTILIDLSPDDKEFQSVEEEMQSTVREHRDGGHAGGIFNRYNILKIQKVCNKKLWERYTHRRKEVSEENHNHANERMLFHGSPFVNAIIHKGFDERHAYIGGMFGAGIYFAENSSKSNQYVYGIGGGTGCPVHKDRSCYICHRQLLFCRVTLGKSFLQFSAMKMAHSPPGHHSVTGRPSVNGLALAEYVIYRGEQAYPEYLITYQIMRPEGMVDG
T4 sequence (Q9H2K2 873-1166): as above
T3 sequence (O95271 1023-1327): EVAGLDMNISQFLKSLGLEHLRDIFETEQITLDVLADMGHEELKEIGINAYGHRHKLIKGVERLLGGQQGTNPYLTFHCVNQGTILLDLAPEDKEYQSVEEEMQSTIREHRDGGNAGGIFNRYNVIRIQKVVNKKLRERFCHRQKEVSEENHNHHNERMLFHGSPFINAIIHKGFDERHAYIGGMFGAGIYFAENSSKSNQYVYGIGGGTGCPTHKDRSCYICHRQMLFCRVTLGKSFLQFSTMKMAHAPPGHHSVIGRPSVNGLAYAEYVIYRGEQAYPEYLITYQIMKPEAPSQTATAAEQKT
T2 sequence (O95271 1023-1327): as above

Row | IC50 [1] | IC50 [2] | IC50 [3] | IC50 [4] | IC50 [5] | Structure (SMILES) | Wnt-stimulated accumulation of β-catenin (β-catenin) | growth of DLD-1-cancer cells (DLD-1-cancer cells)
1 | 300 to 3000 nM | 3000 to 50000 nM | < 300 nM | < 300 nM | < 300 nM | O=C(CCc1cccc(Cl)c1Cl)Nc1nncc2ccccc12 [Compound A17, 3-(2,3-dichloro-phenyl)-N-phthalazin-1-yl-propionamide] | – | –
2 | – | – | – | – | – | Oc1nc(-c2ccc(C(F)(F)F)cc2)nc2c1CSCC2 [XAV939] | blocked | inhibits growth
